# Data: patent US11841369B2, “Method for improving quality of therapeutic cell through real-time glutathione measurement” (CELL2IN, INC., priority 2017, dated 2023)
# How the values were obtained:
# [1] = system: hUC-MSCs; assay: FreSH-Tracer-based glutathione regeneration capacity (GRC) after diamide; design: species or system human; details: hUC-MSCs subcultured three times with AA2G 250 μg/mL, low concentration of diamide, vs naive cell group
# Description: In addition, GH is calculated as the coefficient of variation or robust coefficient of variation of cellular FR. GRC refers to a value obtained by real-time monitoring of FR after living cells are treated with an oxidizing agent, as calculated by dividing a value obtained by subtracting AUC of a group treated with 0.1-100 mM N-ethylmaleimide (NEM) from FR AUC of an oxidizing agent (diamide, H2O2, etc.)-treated group by a value obtained by subtracting the AUC of NEM-treated group from AUC of the untreated control, and multiplying the resulting value by 100. The FR of the NEM-treated group is a value for increasing the sensitivity of a GRC value by treating it as the blank value of the FR of the cells of interest. […] To remove the MitoFreSH-Tracer from the medium before measurement, the medium was exchanged with fresh 10 mM HEPES-containing HBSS, and a fluorescence image was obtained using a confocal imaging system, Operetta. By comparing GSH levels quantified from control cells not treated with RSL3 or control cells before treated with RSL3, the distribution of GSH expression-changed cells was calculated. Based on the point where the distribution histogram is divided into two peaks, the cells were divided into GSH^High cells (right peak) and GSH^Low cells (left peak), and then a ratio of corresponding cells was expressed as a percentage (%). […]
# [2] = system: hUC-MSCs; assay: SDF1α- and PDGF-AA-induced migration capacity of hUC-MSCs; format: cell-based, human; details: 125 or 250 μg/mL AA2G, three days
# Description: The inventors observed an effect of the material on stem cells by treating each stem cells with a material for enhancing a glutathione evaluation parameter. When hUC-MSCs were subcultured in a L-AA2G-containing medium, CFU-F, migration capacity, and an anti-inflammatory effect were observed. A CFU-F assay (n=3) was performed by treating hUC-MSCs with 125 or 250 μg/mL of AA2G for three days. As shown in FIGS. 16A and 16B, it was confirmed that, when AA2G was treated, CFU-F increased. In addition, as hUC-MSCs were treated with 125 or 250 μg/mL of AA2G for three days, PDGF-AA-induced migration capacity (n=3) was analyzed. As shown in FIGS. 17A and 17B, it was confirmed that the migration capacity was increased by AA2G treatment. In addition, the reduction in T cell proliferation, a reduction in T cell differentiation, and the promotion of Treg cell differentiation were observed by treating hUC-MSCs with 125 or 250 μg/mL of AA2G for three days. […] Meanwhile, hUC-MSCs were cultured with a glutathione precursor such as γ-glutamyl cysteine (GGC, 0.1, 0.25, and 0.5 mM). A CFU-F assay (n=3) was performed by treating hUC-MSCs with each concentration of GGC for 2 hours. […] In addition, SDF1α and PDGF-AA-induced migration capacities (n=3) were analyzed for hUC-MSCs without treatment with GGC, and SDF1α- and PDGF-AA-induced migration abilities (n=3) were analyzed by treating hUC-MSCs with the increasing concentrations of GGC. STI571 was used as a PDGFR kinase inhibitor. As shown in FIGS. 20A to 20C, it was confirmed that, according to an increase in GGC treatment concentration, SDF1α- and PDGF-AA-induced migration capacities were enhanced.
smiles,measurement,setting,value
"O=C1O[C@H]([C@@H](O)CO)C(O)=C1O[C@H]1O[C@H](CO)[C@@H](O)[C@H](O)[C@H]1O [AA2G, ascorbic acid 2-glucoside]",FreSH-Tracer-based GRC,[1],increased
same,PDGF-AA-induced migration capacity,[2],increased
